Experimental data published in PMC12596933 (Chembiochem, 2025).

Columns and labels:
FUT8 = details: read-out: Km as donor for FUT8; cited from earlier work
FUT6 = details: read-out: Km as donor for FUT6; cited from earlier work
[1] = biological target: T1, FKP (bacterial L-fucokinase/GDP-fucose pyrophosphorylase) (Bacteroides fragilis, UniProt Q58T34); assay: Enzymatic conversion by FKP into the sugar nucleotide; type: biochemical
T1 sequence (Q58T34 1-949): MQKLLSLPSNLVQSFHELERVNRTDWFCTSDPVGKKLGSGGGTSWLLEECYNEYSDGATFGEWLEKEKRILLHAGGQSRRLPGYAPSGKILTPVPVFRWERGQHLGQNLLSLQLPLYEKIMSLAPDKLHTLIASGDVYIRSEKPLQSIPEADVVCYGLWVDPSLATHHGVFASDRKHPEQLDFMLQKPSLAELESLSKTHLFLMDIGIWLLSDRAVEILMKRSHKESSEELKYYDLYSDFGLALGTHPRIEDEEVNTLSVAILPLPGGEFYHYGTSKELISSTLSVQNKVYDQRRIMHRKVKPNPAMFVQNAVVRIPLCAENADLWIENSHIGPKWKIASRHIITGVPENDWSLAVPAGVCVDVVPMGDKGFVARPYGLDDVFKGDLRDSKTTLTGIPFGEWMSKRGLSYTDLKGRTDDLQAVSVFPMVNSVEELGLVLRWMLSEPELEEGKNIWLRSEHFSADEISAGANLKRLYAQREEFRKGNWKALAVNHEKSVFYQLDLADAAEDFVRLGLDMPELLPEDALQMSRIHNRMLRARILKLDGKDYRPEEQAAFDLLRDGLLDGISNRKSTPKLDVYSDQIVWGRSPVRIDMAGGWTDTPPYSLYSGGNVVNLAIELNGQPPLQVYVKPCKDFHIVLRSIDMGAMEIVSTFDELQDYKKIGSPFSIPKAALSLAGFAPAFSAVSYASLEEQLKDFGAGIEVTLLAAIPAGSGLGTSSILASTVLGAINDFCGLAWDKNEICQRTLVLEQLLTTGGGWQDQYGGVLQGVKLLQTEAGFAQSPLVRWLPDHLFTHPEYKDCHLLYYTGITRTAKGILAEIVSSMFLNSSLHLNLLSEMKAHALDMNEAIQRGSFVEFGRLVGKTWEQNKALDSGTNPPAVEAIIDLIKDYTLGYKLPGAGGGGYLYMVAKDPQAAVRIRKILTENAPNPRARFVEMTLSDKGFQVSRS

HL-60 cells = assay: Cell surface fucosylation, flow cytometry with lectin AAL staining; type: cell-based; details: 4 to 500 μM, 3 days, normalized to DMSO as 100%

For `Nc1nc2c(ncn2C2OC(COP(=O)(O)OP(=O)(O)OC3OC(CNC(=O)Cc4ccc5ccccc5c4)C(O)C(O)C3O)C(O)C2O)c(=O)[nH]1` (stereo not shown) [6‐deoxy‐6‐N‐(2‐naphthylacetyl)‐GDP‐fucose], the Km (FUT8) is listed as 175 µM and the Km (FUT6) is listed as 0.94 µM.

With `[N-]=[N+]=NC[C@@H]1OC(O)[C@@H](F)[C@H](O)[C@@H]1O` (stereo partly shown) [6‐N3‐2‐F‐Fuc] the “conversion by FKP into the corresponding sugar nucleotide product” value [1] was “unable to catalyze the conversion”.

In the case of `CC(=O)O[C@@H]1O[C@@H](C)[C@@H](OC(C)=O)[C@@H](OC(C)=O)[C@@H]1OC(C)=O` [Ac‐fucose], the “effect on cell surface fucosylation” value (HL-60 cells) is reported as “enhanced fucosylation”.
